Laboratory results published in ChEMBL document CHEMBL1201862, “PubChem BioAssay data set” (2004).
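Where inhibition never reached the appropriate level, the endpoint shown equals the highest concentration tested. Otherwise, values were interpolated linearly from a five-concentration, 48-hour dose response in 96-well plates. Abbreviation: GI50, concentration required for 50% inhibition of growth.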 Activity calls are given as the source filed them. Cut-off read from the data, not from the text of the source: active = GI50 up to about 1.1 µM and inactive = higher.

How the values were obtained:
Experiment in all cases: inhibition of tumour cell growth, NCI panel, 48 h
786-0 = tested on: 786-0
ACHN = tested on: ACHN
CCRF-CEM = tested on: CCRF-CEM
DU-145 = tested on: DU-145
HCC 2998 = tested on: HCC 2998
HCT-116 = tested on: HCT-116
HCT-15 = tested on: HCT-15
HT-29 = tested on: HT-29
Hs-578T = tested on: Hs-578T
IGROV-1 = tested on: IGROV-1
MCF7 = tested on: MCF7
MDA-MB-231 = tested on: MDA-MB-231
MDA-N = tested on: MDA-N
MOLT-4 = tested on: MOLT-4
NCI-H226 = tested on: NCI-H226
RPMI-8226 = tested on: RPMI-8226
RXF 393 = tested on: RXF 393
SR = tested on: SR
TK-10 = tested on: TK-10
UACC-257 = tested on: UACC-257

Compound	GI50 (786-0)	GI50 (ACHN)	GI50 (CCRF-CEM)	GI50 (DU-145)	GI50 (HCC 2998)	GI50 (HCT-116)	GI50 (HCT-15)	GI50 (HT-29)	GI50 (Hs-578T)	GI50 (IGROV-1)	GI50 (MCF7)	GI50 (MDA-MB-231)	GI50 (MDA-N)	GI50 (MOLT-4)	GI50 (NCI-H226)	GI50 (RPMI-8226)	GI50 (RXF 393)	GI50 (SR)	GI50 (TK-10)	GI50 (UACC-257)
O=C1/C(=C/c2cccnc2)C(n2cccc2)c2c(Br)sc(Br)c21 (configuration not stated)	2.55 µM (inactive)	3.28 µM (inactive)	1.93 µM (inactive)	1.94 µM (inactive)	0.916 µM (active)	2.26 µM (inactive)	2.02 µM	2.79 µM (inactive)	2.94 µM (inactive)	1.58 µM (inactive)	1.8 µM (inactive)	1.8 µM (inactive)	2.05 µM (inactive)	2.19 µM (inactive)	41.3 µM (inactive)	1.95 µM (inactive)	2.4 µM (inactive)	1.81 µM (inactive)	1.69 µM (inactive)	1.72 µM (inactive)
C#CCN(Cc1ccc2nc(OC)c(OC)nc2c1)c1cc(OC)c(OC)c(OC)c1	24 µM (inactive)	21 µM (inactive)	34.9 µM (inactive)	27.6 µM (inactive)	35.1 µM (inactive)	16.7 µM (inactive)	22.9 µM	21.8 µM (inactive)	21.2 µM (inactive)	19.1 µM (inactive)	11.9 µM (inactive)	12.1 µM (inactive)	7.31 µM (inactive)	16.9 µM (inactive)	15.7 µM (inactive)	5.6 µM (inactive)	14.9 µM (inactive)	26.5 µM (inactive)	35.5 µM (inactive)	12.3 µM (inactive)
CC(CC(=O)O)(CC(=O)O)c1ccccc1	> 100 µM (inactive)	> 100 µM (inactive)	> 100 µM (inactive)	> 100 µM (inactive)	> 100 µM (inactive)	> 100 µM (inactive)	> 100 µM	> 100 µM (inactive)	> 100 µM (inactive)	> 100 µM (inactive)	> 100 µM (inactive)	> 100 µM (inactive)	> 100 µM (inactive)	–	> 100 µM (inactive)	> 100 µM (inactive)	> 100 µM (inactive)	> 100 µM (inactive)	> 100 µM (inactive)	> 100 µM (inactive)
COc1c2c(c3c(c1OC)c(=O)c1ccccc1n3C)OCO2	> 100 µM (inactive)	> 100 µM (inactive)	> 100 µM (inactive)	> 100 µM (inactive)	> 100 µM (inactive)	> 100 µM (inactive)	> 100 µM	> 100 µM (inactive)	> 100 µM (inactive)	> 100 µM (inactive)	> 100 µM (inactive)	> 100 µM (inactive)	> 100 µM (inactive)	> 100 µM (inactive)	> 100 µM (inactive)	> 100 µM (inactive)	–	> 100 µM (inactive)	> 100 µM (inactive)	> 100 µM (inactive)
Cc1ccc(C(=O)NN=C(/N=N/c2cccc(C)c2)c2ccc(N(C)C)cc2)cc1	> 100 µM (inactive)	> 100 µM (inactive)	> 100 µM (inactive)	28.4 µM (inactive)	> 100 µM (inactive)	> 100 µM (inactive)	> 100 µM	> 100 µM (inactive)	> 100 µM (inactive)	> 100 µM (inactive)	> 100 µM (inactive)	> 100 µM (inactive)	50.9 µM (inactive)	> 100 µM (inactive)	> 100 µM (inactive)	> 100 µM (inactive)	–	> 100 µM (inactive)	> 100 µM (inactive)	> 100 µM (inactive)
C=C1C(=O)O[C@H]2[C@H]1CC(=O)/C(C)=C/CC[C@@]1(C)O[C@@H]21	0.582 µM (active)	0.461 µM (active)	0.0841 µM (active)	6.5 µM (inactive)	2.4 µM (inactive)	0.719 µM (active)	0.515 µM	1.13 µM (inactive)	2.4 µM (inactive)	2.04 µM (inactive)	0.392 µM (active)	1.05 µM (active)	0.259 µM (active)	–	4.26 µM (inactive)	–	0.44 µM (active)	0.541 µM (active)	1.24 µM (inactive)	–
CCOC(=O)/C(C(C)=O)=C(\OC(C)=O)c1ccncc1C(=O)O	> 100 µM (inactive)	> 100 µM (inactive)	> 100 µM (inactive)	> 100 µM (inactive)	> 100 µM (inactive)	> 100 µM (inactive)	> 100 µM	> 100 µM (inactive)	> 100 µM (inactive)	> 100 µM (inactive)	> 100 µM (inactive)	> 100 µM (inactive)	> 100 µM (inactive)	> 100 µM (inactive)	> 100 µM (inactive)	> 100 µM (inactive)	> 100 µM (inactive)	> 100 µM (inactive)	–	> 100 µM (inactive)
COc1ccc(N2C(=O)/C(=C\c3cccc(Oc4ccccc4)c3)SC2c2ccccc2)cc1 (configuration not stated)	> 100 µM (inactive)	> 100 µM (inactive)	5.3 µM (inactive)	73.8 µM (inactive)	> 100 µM (inactive)	25.4 µM (inactive)	> 100 µM	–	10.3 µM (inactive)	–	29.9 µM (inactive)	> 100 µM (inactive)	29.3 µM (inactive)	26.7 µM (inactive)	> 100 µM (inactive)	21.2 µM (inactive)	8.59 µM (inactive)	16.7 µM (inactive)	> 100 µM (inactive)	38.7 µM (inactive)
COC(=O)c1c(OC(C)=O)ccc2c1c1c(OC(C)=O)c3ccccc3c(OC(C)=O)c1n2C	26.4 µM (inactive)	15.4 µM (inactive)	23.2 µM (inactive)	19.9 µM (inactive)	23.7 µM (inactive)	19.1 µM (inactive)	27.9 µM	38.4 µM (inactive)	18.3 µM (inactive)	7.87 µM (inactive)	28.7 µM (inactive)	31.5 µM (inactive)	32.2 µM (inactive)	15.4 µM (inactive)	47.1 µM (inactive)	16.2 µM (inactive)	29.5 µM (inactive)	14.5 µM (inactive)	26.8 µM (inactive)	–
CC1(C)Oc2ccc3c(=O)c4ccccc4oc3c2C1C(=O)O (configuration not stated)	> 100 µM (inactive)	–	> 100 µM (inactive)	> 100 µM (inactive)	> 100 µM (inactive)	> 100 µM (inactive)	–	> 100 µM (inactive)	> 100 µM (inactive)	> 100 µM (inactive)	> 100 µM (inactive)	> 100 µM (inactive)	> 100 µM (inactive)	> 100 µM (inactive)	> 100 µM (inactive)	–	> 100 µM (inactive)	> 10 µM (inactive)	> 100 µM (inactive)	> 100 µM (inactive)
OC1CCCCCCCCCCC1SCCCCl (configuration not stated)	> 100 µM (inactive)	> 100 µM (inactive)	–	> 100 µM (inactive)	> 100 µM (inactive)	> 100 µM (inactive)	> 100 µM	> 100 µM (inactive)	> 100 µM (inactive)	> 100 µM (inactive)	> 100 µM (inactive)	> 100 µM (inactive)	> 100 µM (inactive)	> 100 µM (inactive)	> 100 µM (inactive)	> 100 µM (inactive)	> 100 µM (inactive)	> 100 µM (inactive)	> 100 µM (inactive)	> 100 µM (inactive)
O=C(c1nsc(Cl)c1Cl)N1CCCCC1	> 100 µM (inactive)	–	> 100 µM (inactive)	> 100 µM (inactive)	> 100 µM (inactive)	> 100 µM (inactive)	> 100 µM	> 100 µM (inactive)	> 100 µM (inactive)	> 100 µM (inactive)	> 100 µM (inactive)	> 100 µM (inactive)	> 100 µM (inactive)	> 100 µM (inactive)	> 100 µM (inactive)	> 100 µM (inactive)	> 100 µM (inactive)	> 100 µM (inactive)	> 100 µM (inactive)	> 100 µM (inactive)
CCN(CC)C(=O)N[C@@H](Cc1ccccc1)C(=O)NC	> 100 µM (inactive)	> 100 µM (inactive)	> 100 µM (inactive)	> 100 µM (inactive)	> 100 µM (inactive)	> 100 µM (inactive)	> 100 µM	> 100 µM (inactive)	> 100 µM (inactive)	> 100 µM (inactive)	> 100 µM (inactive)	> 100 µM (inactive)	> 100 µM (inactive)	> 100 µM (inactive)	> 100 µM (inactive)	> 100 µM (inactive)	> 100 µM (inactive)	> 100 µM (inactive)	–	–
CC(C)C1=CC23CCC4C(C)(C(=O)O)CCCC4(C)C2CC1C1C(=O)N(c2ccccc2N2C(=O)C4C5CC6C7(C)CCCC(C)(C(=O)O)C7CCC6(C=C5C(C)C)C4C2=O)C(=O)C13 (configuration not stated)	14.4 µM (inactive)	10.2 µM (inactive)	4.39 µM (inactive)	9.4 µM (inactive)	4.01 µM (inactive)	5.77 µM (inactive)	14.3 µM	3.32 µM (inactive)	9.55 µM (inactive)	–	3.66 µM (inactive)	11.6 µM (inactive)	5 µM (inactive)	2.85 µM (inactive)	12.1 µM (inactive)	7.64 µM (inactive)	11.3 µM (inactive)	3.89 µM (inactive)	13.1 µM (inactive)	–
COc1c(-c2nc3ccc(N4CCN(C)CC4)nc3[nH]2)cc(OC)c2[nH]c(COC(C)=O)nc12	22.8 µM (inactive)	30.3 µM (inactive)	–	29 µM (inactive)	15.2 µM (inactive)	20 µM (inactive)	46 µM	20.3 µM (inactive)	> 100 µM (inactive)	65.9 µM (inactive)	17.2 µM (inactive)	17.9 µM (inactive)	24.7 µM (inactive)	–	–	–	21.8 µM (inactive)	3.78 µM (inactive)	38.5 µM (inactive)	24.8 µM (inactive)
